# Test results as given in patent US12447191B2, “Topical application of polypeptide in the treatment of skin damage” (WUHAN YICHENG BIOTECHNOLOGY CO., LTD., priority 2020, dated 2025).
# No end group written: not given here.
# How the values were obtained:
# HaCAT cells = assay: Cell Differentiation Experiment; format: cell-based, human; conditions: 10 μL polypeptide (10 mg/ml), 48 h
# Experimental: 1. Cell Resuscitation: • (1) HaCAT cells (human immortalized epidermal cells, purchased from Wuhan University Cell Preservation Center, GDC106) are taken out of liquid nitrogen, quickly put into a 37° C. water bath, and gently shake the cryopreservation tube to dissolve the cryopreservation solution;
# (2) After dissolution, the HaCAT cells were transferred to a centrifuge tube containing 5 ml of culture medium. The cells were collected by centrifugation, centrifuged at 1000 rmp at room temperature for 5 min, and the supernatant was discarded;
# (3) The HaCAT cells were suspended in a complete medium containing 10% fetal bovine serum, inoculated into a culture dish, gently blown and mixed, and cultured at 37° C. and 5% CO2 saturated humidity.
# When the cell density reaches 80%, the HaCAT cells will be subcultured:
# (1) Discard the culture medium and wash it once with PBS;
# (2) Add 1-2 ml 0.25% trypsin to digest the cells. Observe under the microscope. Digest for 1-2 min. It can be seen that the cells are separated from each other and become round, that is, the digestion is completed;
# (3) Quickly discard the trypsin, add the complete culture medium, blow the cells to make a single cell suspension, pass the passage in a ratio of 1:3, and expand the culture under 37° C. and 5% CO2 saturated humidity. […]
# [1] = test system: deep II degree burn (scald wound); assay: Animal Experiment 1: rat scald (deep II degree burn) model; format: in vivo, SD rats; conditions: after 14 days of treatment; smeared twice a day on scald wound; other side untreated control
# Experimental: The following will verify the therapeutic function of the medicament prepared in embodiments 1 to 3 on trauma and burns through experiments. The pharmacodynamic effects of polypeptide drugs were evaluated by establishing a rat burn model or a rat trauma model. Experimental Purpose: to study the therapeutic effect of polypeptide drug of the invention on scald. Experimental Animals: SD rats, half male and half female, 200 g±10 g. The Modeling Scheme: the rats' back were depilated with 10% barium sulfide the day before the experiment, and anesthetized by intraperitoneal injection before scalding. The rat models were made with a constant temperature and pressure scald apparatus. After scalding, 5 ml lactate Ringer's solution was intraperitoneally injected immediately to prevent shock. The criteria for successful modeling: disappearance of local epidermis; expansion of blood vessels in epidermis, dermis and subcutaneous tissue; edema of subcutaneous tissue; infiltration of acute and chronic inflammatory cells in dermis and subcutaneous tissue; the above description is a deep II degree burn. Animal Grouping: 8 SD rats in total Ointment Group (Ointment prepared in embodiment 2): 4 rats, half male and half female, scalded on both sides of the body. After scalding, one side was administered, and the other side was used as control. […]
sequence,measurement,setting,value
MPYSTELIFYIEMDP [polypeptide],Differentiation of HaCAT cells (morphology on photos),HaCAT cells,some cells are differentiated
same,Photo observation of wound healing,[1],can obviously promote the wound healing
